Experimental data published in patent US20100168054A1, “Functionalized Beta 1,6 Glucosamine Disaccharides and Process for Their Preparation” (OM PHARMA, priority 2006, published 2010).
pIC50: −log10 of the molar value.

What was measured:
murine macrophages = assay: Nitric oxide production by murine macrophages (Griess reaction); assay type: cell-based, C57/BL6 mice; conditions: 22 h
Source text: Experimental assay of nitric oxide production by murine macrophages: Six-week old male C57/BL6 mice (six weeks old male, SPF quality, Charles Rivier, FR) were killed by CO2 inhalation. The hip, femur, and tibia from the posterior appendage were removed. The bone marrow was extracted from the lumen by injecting Dulbecco's Modified Eagle Medium (DH) through the bone after cutting both end portions. After washing, the stem cells were resuspended (40'000 cells/mL) in DH medium supplemented with 20% horse serum and 30% L929 cell supernatant. The cell suspension is incubated for 8 days in an incubator at 37° C. under 8% CO2 and moisture-saturated atmosphere. Macrophages are then detached with ice-cold PBS, washed and resuspended in DH medium supplemented with 5% fetal calf serum (FCS), amino acids and antibiotics (DHE medium). The cell density is adjusted to 700′000 cells/mL. Aqueous solutions of the products are serially diluted in DHE medium directly in microtiter plates. The products are tested in triplicates and each microtiter plate comprises a negative control composed of medium. The final volume in each well is […]. 100 μL of the cell suspension are added to the diluted products and the cells are incubated for 22 h in an incubator at 37° C., under 8% CO2 and a moisture-saturated atmosphere. At the end of the incubation period, 100 μL of supernatant are transferred to another microtiter plate and the nitrite concentration produced in each supernatant is determined by running a Griess reaction. 100 μL of Griess reagent (5 mg/mL of sulfanilamide+0.5 mg/mL of N-(1-naphtyl)ethylene-diamine hydrochloride) in 2.5% aqueous phosphoric acid, are added to each well. The microtiter plates are read with a spectrophotometer (SpectraMax Plus, Molecular Devices) at 562 nm against a reference at 690 nm. The nitrite concentration is proportional to nitric oxide content being formed. The nitrite content is determined based on a standard curve. The results are given as mean value±standard deviation and plotted as a dose response curve.

TLR2 and CD14 = target: T1, TLR2 and CD14 (Homo sapiens, UniProt O60603); assay: HEK-TLR2-CD14 IL-8 secretion; assay type: cell-based; conditions: for IL-8 secretion, mean: 24 h; for activation of IL-8 secretion via TLR2 (in words): HEK-TLR2-CD14
T1 construct: expressed in transfected cells; host or cells: HEK (HEK-TLR2-CD14 cell line)
T1 sequence (O60603 21-784): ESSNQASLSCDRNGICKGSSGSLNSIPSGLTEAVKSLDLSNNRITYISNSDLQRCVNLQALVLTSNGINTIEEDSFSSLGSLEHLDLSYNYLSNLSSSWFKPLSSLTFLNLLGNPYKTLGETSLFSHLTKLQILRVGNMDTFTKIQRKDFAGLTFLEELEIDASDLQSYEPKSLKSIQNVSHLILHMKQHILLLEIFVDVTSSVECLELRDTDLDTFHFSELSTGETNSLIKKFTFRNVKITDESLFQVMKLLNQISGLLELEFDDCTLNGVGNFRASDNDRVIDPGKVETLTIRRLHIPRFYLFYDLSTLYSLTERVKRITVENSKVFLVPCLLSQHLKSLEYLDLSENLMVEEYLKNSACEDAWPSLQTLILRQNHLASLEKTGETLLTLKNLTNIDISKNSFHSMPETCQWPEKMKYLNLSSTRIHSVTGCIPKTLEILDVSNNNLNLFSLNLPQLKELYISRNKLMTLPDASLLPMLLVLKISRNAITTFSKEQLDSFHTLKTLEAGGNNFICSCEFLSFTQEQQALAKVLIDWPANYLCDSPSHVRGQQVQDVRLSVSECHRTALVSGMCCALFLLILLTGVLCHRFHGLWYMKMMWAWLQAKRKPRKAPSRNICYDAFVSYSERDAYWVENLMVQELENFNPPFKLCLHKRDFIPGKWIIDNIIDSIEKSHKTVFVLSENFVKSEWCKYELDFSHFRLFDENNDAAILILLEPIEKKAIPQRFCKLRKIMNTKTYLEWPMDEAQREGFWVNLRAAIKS
Source text: (§1) The HEK293 cell line was chosen for its null or low basal expression of the TLR genes. These cells enable efficient monitoring of TLR activity using ELISA analysis such as IL-8 titration or reporter-based systems that monitor TLR-induced NF-κB activation. HEK-TLR2 cells (Invivogen, Toulouse, France) are engineered HEK293 cells stably transfected with multiple genes from the TLR2 pathway that include TLR2 and genes participating in the recognition or involved in the signaling cascade. These cells secrete IL-8 after TLR2 stimulation. The experiments were performed according to manufacturers' instructions. Briefly, 2×10^4 cells/well (200 ul RPMI) are incubated at 37° C. during 3 days (5% CO2). The medium is removed, and 90 ul RPMi+5% FCS is added to the wells Then the agonists and controls are added (10 ul/well). The cells return to the incubator for 24 hours. The supernatants are collected and the IL-8 ELISA is performed according to manufacturer's instructions These preliminary results were confirmed in another cell line expressing concomitantly TLR2 and CD14. The procedure used is similar to the one described just above.

TLR4 = target: T2, TLR4 (Homo sapiens, UniProt O00206+Q9Y6Y9); assay: HEK-MD2-TLR4-CD14 IL-8 secretion; assay type: cell-based; conditions: 24 h
T2 construct: expressed in transfected cells; host or cells: HEK293
T2 sequence (O00206 24-839): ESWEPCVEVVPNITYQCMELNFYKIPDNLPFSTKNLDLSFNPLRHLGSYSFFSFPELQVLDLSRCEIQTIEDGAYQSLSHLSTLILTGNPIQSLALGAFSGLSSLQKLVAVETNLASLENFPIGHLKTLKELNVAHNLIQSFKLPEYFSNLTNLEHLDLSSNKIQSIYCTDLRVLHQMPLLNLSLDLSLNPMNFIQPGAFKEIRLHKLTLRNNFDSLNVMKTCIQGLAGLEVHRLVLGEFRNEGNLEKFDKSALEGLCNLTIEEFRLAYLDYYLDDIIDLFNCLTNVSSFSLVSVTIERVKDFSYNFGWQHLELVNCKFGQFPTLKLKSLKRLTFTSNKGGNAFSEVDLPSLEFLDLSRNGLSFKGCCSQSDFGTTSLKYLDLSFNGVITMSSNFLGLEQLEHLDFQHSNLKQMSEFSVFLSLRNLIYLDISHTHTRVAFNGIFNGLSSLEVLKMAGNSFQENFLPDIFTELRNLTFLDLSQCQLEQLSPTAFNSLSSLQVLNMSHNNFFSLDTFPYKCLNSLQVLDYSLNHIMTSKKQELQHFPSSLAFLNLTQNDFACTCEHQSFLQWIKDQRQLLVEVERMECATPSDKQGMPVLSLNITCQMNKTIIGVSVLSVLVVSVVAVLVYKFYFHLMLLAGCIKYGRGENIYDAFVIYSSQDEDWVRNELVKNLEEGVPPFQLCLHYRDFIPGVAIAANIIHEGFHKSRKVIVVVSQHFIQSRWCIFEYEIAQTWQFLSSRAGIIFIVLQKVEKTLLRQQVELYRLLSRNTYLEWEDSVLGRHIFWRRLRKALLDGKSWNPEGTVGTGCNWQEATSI
T2 sequence (Q9Y6Y9 17-160 limits assumed): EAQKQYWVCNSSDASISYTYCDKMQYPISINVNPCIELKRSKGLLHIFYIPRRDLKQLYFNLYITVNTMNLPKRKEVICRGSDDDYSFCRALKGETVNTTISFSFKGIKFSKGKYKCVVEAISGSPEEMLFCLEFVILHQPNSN
Source text: as §1, with “instructions” for “instructions These preliminary results were confirmed in another cell line expressing concomitantly TLR2 and CD14. The procedure used is similar to the one described just above.”
HEK-MD2-TLR4-CD14 are highly sensitive to LPS. They were obtained by stable transfection of HEK293 cells with the TLR4, MD2 and CD14 genes and an NF-κB-inducible reporter system. They secrete IL-8. We used the same experimental procedure as for the other HEK cell lines described above.

rat mast cells = assay: Histamine secretion (compound 48/80-stimulated); assay type: cell-based; conditions: Rattus norvegicus, Mast cell, 2 min, compound 48/80 0.1 μg/ml, 37° C., read-out: IC50
Source text: Using an in vitro rat model of mast cell degranulation (proposed by the CRO CEREP, catalog number 2006: 771-c), we aimed to investigate whether the synthetic molecules OM-174-DP (compound 1b) OM-174-MP-PD (19), OM-174-MP-EP (33), OM-174-MP-CM (35c) and OM-174-MP-PR (17) would inhibit histamine secretion by compound 48/80-stimulated mastocytes. The protocol used is briefly summarized below:
The results are expressed as a percent of control specific activity ((measured specific activity/control specific activity)×100) obtained in the presence of the test compounds. The IC50 values (concentration causing a half-maximal inhibition of control specific activity) were determined by non-linear regression analysis of the inhibition curves generated with mean replicate values using Hill equation curve fitting (Y=D+[(A−D)/(1+(C/C50)nH)], where Y=specific activity, D=minimum specific activity, A=maximum specific activity, C=compound concentration, C50=IC50, and nH=slope factor). This analysis was performed using a software developed at Cerep (Hill software) and validated by comparison with data generated by the commercial software SigmaPlot® 4.0 for Windows® (© 1997 by SPSS Inc.).
In each experiment, the reference compound was tested concurrently with the test compounds in order to assess the assay suitability. It was tested at several concentrations (for IC50 value determination), and the data were compared with historical values determined at CEREP. The assay was rendered valid if the suitability criteria were met, in accordance with the corresponding Standard Operating Procedure.

Compound | nitric oxide production (in words), FIG. 25 (murine macrophages) | IL-8 secretion, mean (TLR2 and CD14; 14 ng/ml) | IL-8 secretion, mean (TLR2 and CD14; 41 ng/ml) | IL-8 secretion, mean (TLR2 and CD14; 124 ng/ml) | IL-8 secretion, mean (TLR2 and CD14; 370 ng/ml) | IL-8 secretion, mean (TLR2 and CD14; 1111 ng/ml) | IL-8 secretion, mean (TLR2 and CD14; 3333 ng/ml) | IL-8 secretion, mean (TLR2 and CD14; 10000 ng/ml) | IL-8 secretion, mean (TLR4; 14 ng/ml) | IL-8 secretion, mean (TLR4; 41 ng/ml) | IL-8 secretion, mean (TLR4; 124 ng/ml) | IL-8 secretion, mean (TLR4; 370 ng/ml) | IL-8 secretion, mean (TLR4; 1111 ng/ml) | IL-8 secretion, mean (TLR4; 3333 ng/ml) | IL-8 secretion, mean (TLR4; 10000 ng/ml) | pIC50 (rat mast cells) | activation of IL-8 secretion via TLR2 (in words) (TLR2 and CD14) | dose from which active (nitric oxide production) (murine macrophages)
CCCCCCCCCCCC(=O)O[C@H](CCCCCCCCCCC)CC(=O)N[C@H]1[C@H](OC[C@H]2O[C@H](O)[C@H](NC(=O)C[C@H](O)CCCCCCCCCCC)[C@@H](O)[C@@H]2O)O[C@H](CO)[C@@H](OP(=O)(O)O)[C@@H]1O [compound 16, 2-Deoxy-6-O-[2-deoxy-4-O-(dihydroxyphosphoryl)-2-[(R)-3-dodecanoyloxytetradecanoylamino]-β-D-glucopyranosy]-2-[(R)-3-hydroxytetradecanoylamino]-α-D-glucopyranose] | able to induce high levels of nitric oxide | 0.03 pg/mL | 0.00 pg/mL | 0.03 pg/mL | 0.01 pg/mL | 0.06 pg/mL | 0.13 pg/mL | 0.22 pg/mL | 1.75 pg/mL | 1.68 pg/mL | 1.62 pg/mL | 1.66 pg/mL | 1.60 pg/mL | 1.63 pg/mL | 1.90 pg/mL |  |  | 
CCCCCCCCCCCC(=O)O[C@H](CCCCCCCCCCC)CC(=O)N[C@H]1[C@H](OC[C@H]2O[C@H](OCCC)[C@H](NC(=O)C[C@H](O)CCCCCCCCCCC)[C@@H](O)[C@@H]2O)O[C@H](CO)[C@@H](OP(=O)(O)O)[C@@H]1O [compound 17, Propyl-2-Deoxy-6-O-[2-deoxy-4-O-(dihydroxyphosphoryl)-2-[(R)-3-dodecanoyloxytetradecanoylamino]-β-D-glucopyranosyl]-2-[(R)-3-hydroxytetradecanoylamino]-α-D-glucopyranoside] | able to induce high levels of nitric oxide | 0.13 pg/mL | 0.14 pg/mL | 0.20 pg/mL | 0.22 pg/mL | 0.40 pg/mL | 1.06 pg/mL | 3.59 pg/mL | 1.88 pg/mL | 1.97 pg/mL | 1.93 pg/mL | 1.85 pg/mL | 1.94 pg/mL | 1.89 pg/mL | 1.70 pg/mL | 5.80 | able to activate IL-8 secretion via TLR2 | 
CCCCCCCCCCCC(=O)O[C@H](CCCCCCCCCCC)CC(=O)NC1C(OCC2OC(OP(=O)(O)O)C(NC(=O)C[C@H](O)CCCCCCCCCCC)C(O)C2O)OC(CO)C(OP(=O)(O)O)C1O (stereo partly drawn) [compound 1b, 2-Deoxy-6-O-[2-deoxy-4-O-(dihydroxyphosphoryl)-2-[(R)-3-dodecanoyloxytetradecanoylamino]-β-D-glucopyranosyl]-2-[(R)-3-hydroxytetradecanoylamino]-α-D-glucopyranosyl dihydrogenophosphate] |  |  |  |  |  |  |  |  |  |  |  |  |  |  |  | 7.07 |  | 
CCCCCCCCCCCC(=O)O[C@H](CCCCCCCCCCC)CC(=O)N[C@H]1[C@H](OC[C@H]2O[C@H](OCC(O)CO)[C@H](NC(=O)C[C@H](O)CCCCCCCCCCC)[C@@H](O)[C@@H]2O)O[C@H](CO)[C@@H](OP(=O)(O)O)[C@@H]1O (stereo partly drawn) [compound 19, 2,3-Dihydroxypropyl-2-Deoxy-6-O-[2-deoxy-4-O-(dihydroxyphosphoryl)-2-[(R)-3-dodecanoyloxytetradecanoylamino]-β-D-glucopyranosyl]-2-[(R)-3-hydroxytetradecanoylamino]-α-D-glucopyranoside] | able to induce high levels of nitric oxide | 0.05 pg/mL | 0.03 pg/mL | 0.11 pg/mL | 0.10 pg/mL | 0.17 pg/mL | 0.26 pg/mL | 0.65 pg/mL | 1.69 pg/mL | 1.64 pg/mL | 1.56 pg/mL | 1.67 pg/mL | 1.73 pg/mL | 1.88 pg/mL | 1.96 pg/mL | 6.80 |  | ≥ 0.01 µg/mL
CCCCCCCCCCCC(=O)O[C@H](CCCCCCCCCCC)CC(=O)N[C@H]1[C@H](OC[C@H]2O[C@H](OCCOP(=O)(O)O)[C@H](NC(=O)C[C@H](O)CCCCCCCCCCC)[C@@H](O)[C@@H]2O)O[C@H](CO)[C@@H](OP(=O)(O)O)[C@@H]1O [compound 33, 2-(Phosphonooxy)ethyl-2-Deoxy-6-O-[2-deoxy-4-O-(dihydroxyphosphoryl)-2-[(R)-3-dodecanoyloxytetradecanoylamino]-β-D-glucopyranosyl]-2-[(R)-3-hydroxytetradecanoylamino]-α-D-glucopyranoside] |  | 0.10 pg/mL | 0.03 pg/mL | 0.17 pg/mL | 0.19 pg/mL | 0.52 pg/mL | 1.49 pg/mL | 4.24 pg/mL | 1.83 pg/mL | 1.79 pg/mL | 1.65 pg/mL | 1.64 pg/mL | 1.58 pg/mL | 1.62 pg/mL | 1.78 pg/mL | 6.68 | able to activate IL-8 secretion via TLR2 | 
